Experiment: in vitro
Details: human, hela cells, % viability

| Structure (SMILES) | viability at 28.5 h, 10 µM [%] |
| --- | --- |
| CC(C)c1ccc(NC(=O)NC(=O)C2CCN(CCOc3ccc4ccccc4c3)CC2)c(C(C)C)c1 [CBK034883] | 96 |
| O=C(NCCOc1ccccc1Cl)NC(=O)C1CCN(CCOc2ccc(Br)cc2)CC1 [CBK034897] | 84.6 |
| COc1ccccc1NC(=O)NC(=O)C1CCN(CCc2cccs2)CC1 [CBK034912] | 87.5 |
| CC(C)NC(=O)NC(=O)C1CCN(CCOc2ccc(Cl)cc2Cl)CC1 [CBK034949] | 106 |
| CNC(=O)NC(=O)C1CCN(CCc2ccccc2)CC1 [CBK034956] | 106 |
| CNC(=O)NC(=O)C1CCN(CCOc2ccccc2)CC1 [CBK034959] | 94.7 |
| CNC(=O)NC(=O)C1CCN(CCc2cccs2)CC1 [CBK034960] | 106 |
| CC(C)c1ccccc1NC(=O)NC(=O)C1CCN(CCc2ccc(C#N)cc2)CC1 [CBK035010] | 90.3 |
| CCCCOc1ccc(NC(=O)NC(=O)C2CCN(CCc3ccc(Br)cc3)CC2)cc1 [CBK035096] | 91.5 |
| CCCCNC(=O)NC(=O)C1CCN(CCCOc2ccccc2)CC1 [CBK035198] | 110 |
| Cc1ccn2c(C3CCN(CCc4ccccc4)CC3)nc(-c3ccccc3)c2c1 [CBK035490] | 89.4 |
| Cc1cccc(-c2nc(C3CCCNC3)n3ccccc23)c1 (stereo not shown) [CBK035528] | 92.3 |
| COc1ccc(-c2nc(CCN)n3ccccc23)cc1 [CBK035583] | 94.3 |
| COc1ccc(-c2nc(C3CCNCC3)n3ccccc23)cc1 [CBK035971] | 92.9 |
| O=C1C2CCCCC2C(=O)N1CCCN1CCC(c2nc(-c3ccc(F)cc3)c3ccccn23)CC1 (stereo not shown) [CBK035972] | 90.1 |
| NCCOc1ncccc1OCc1ccccc1 [CBK036305] | 90.7 |
| CNCCOc1ncccc1OCc1ccccc1 [CBK036306] | 100 |
| CN1CCCC1CCOc1ncccc1OCc1ccccc1 (stereo not shown) [CBK036313] | 93.1 |
| O=C(Nc1ccc(N2CCNCC2)c2ccccc12)c1cccnc1 [CBK036336T] | 92.9 |
| COc1ccc(C(=O)Nc2cc3ccccc3c(N3CCNCC3)n2)cc1 [CBK036344T] | 91.2 |
| O=C(Nc1cc2ccccc2c(N2CCNCC2)n1)c1cnccn1 [CBK036346T] | 95.4 |
| Cn1cccc1C(=O)Nc1cc2ccccc2c(N2CCNCC2)n1 [CBK036347T] | 95.5 |

| Structure (SMILES) | viability at 28.5 h, 10 µM [%] |
| --- | --- |
| O=C(NCc1ccc(OC2CCNCC2)cc1)c1cccs1 [CBK036353T] | 89.8 |
| N#Cc1ccc(C(=O)NCc2ccc(OC3CCNCC3)cc2)cc1 [CBK036358T] | 89.5 |
| O=C(NCc1ccc(OC2CCNCC2)cc1)c1ccccn1 [CBK036361T] | 93.1 |
| O=C(Nc1cncc(OC2CCNCC2)n1)c1ccoc1 [CBK036366T] | 92 |
| O=C(Nc1cncc(OC2CCNCC2)n1)c1cnccn1 [CBK036372T] | 93 |
| O=C(Nc1cncc(OC2CCNCC2)n1)c1cccnc1 [CBK036375T] | 92.1 |
| O=C(Nc1cncc(OC2CCNCC2)n1)c1cnc2ccccc2c1 [CBK036377T] | 92.8 |
| CN1CCCN(c2cc(C(F)(F)F)c3scc(C(=O)NCc4cccc(F)c4F)c3n2)CC1 [CBK036386T] | 87.9 |
| NCC1CCN(c2cc(C(F)(F)F)c3scc(C(=O)NCc4cccc(F)c4F)c3n2)CC1 [CBK036391T] | 71.6 |
| Cc1cccc(Cl)c1S(=O)(=O)c1ccc2ccnc(N3CCNCC3)c2c1 [CBK036394C] | 78.9 |
| COc1ccc([C@@]23CC[C@H](NC(=O)CSc4nccn4C)C[C@@H]2N(C)CC3)cc1OC [CBK036444] | 84.7 |
| COc1ccc([C@@]23CC[C@H](NC(=O)CS(=O)(=O)c4ccccc4)C[C@@H]2N(C)CC3)cc1OC [CBK036445] | 105 |
| COc1ccc([N+](=O)[O-])cc1NC(=O)N[C@@H]1CC[C@@]2(c3ccc(OC)c(OC)c3)CCN(C)[C@H]2C1 [CBK036449T] | 111 |
| COc1ccc([C@@]23CC[C@@H](NC(=O)Nc4ccccc4C(F)(F)F)C[C@@H]2N(C)CC3)cc1OC [CBK036466T] | 106 |
| COc1ccc([C@@]23CC[C@@H](NC(=O)Nc4ccc(Cl)cc4[N+](=O)[O-])C[C@@H]2N(C)CC3)cc1OC [CBK036474T] | 84.1 |
| COc1ccc(CNC(=O)c2cnc(-c3ccc(F)cc3)c(-c3ccc(C(C)=O)s3)c2)cc1 [CBK036577] | 90.7 |
| Fc1ccccc1-c1cn2ccnc2c(N2CCOCC2)n1 [CBK036584] | 105 |
| COc1cccc(OC)c1-c1cn2ccnc2c(N[C@H](CO)C(C)C)n1 [CBK036586] | 99.5 |
| COc1ncc(-c2nccnc2N[C@H](C)c2ccccc2)c(OC)n1 [CBK036588] | 83.7 |
| COc1ncc(-c2nccnc2N2CCN(C)CC2)c(OC)n1 [CBK036595] | 98.7 |
| Cc1cc(-c2nccnc2NCCCN2CCOCC2)cc(C)c1O [CBK036598] | 92 |
| c1cncc(-c2cn3ccnc3c(NCC3CC3)n2)c1 [CBK036609] | 84 |

| Structure (SMILES) | viability at 28.5 h, 10 µM [%] |
| --- | --- |
| CC(=O)Nc1cccc(-c2nccnc2N[C@H](CO)C(C)C)c1 [CBK036611] | 97 |
| COc1ccc(-c2cc(C(=O)Nc3nc4ccccc4[nH]3)cnc2-c2ccc(F)cc2)cn1 [CBK036617] | 98.6 |
| COc1ccc(-c2cc(C(=O)Nc3ccc4ncccc4c3)cnc2-c2ccccc2)cc1 [CBK036623] | 106 |
| O=C(NC1CCc2ccccc21)c1cnc(-c2ccc(Cl)cc2)c(-c2ccc(O)cc2)c1 (stereo not shown) [CBK036629] | 91 |
| c1csc(-c2nccnc2NCCCN2CCOCC2)c1 [CBK036632] | 84.6 |
| O=C(N[C@H]1CCN(Cc2ccccc2)C1)c1cnc(-c2ccccc2)c(-c2ccncc2)c1 [CBK036639] | 84.7 |
| CC(=O)c1ccc(-c2cc(C(=O)NCc3cccc(C(F)(F)F)c3)cnc2-c2ccccc2)s1 [CBK036641] | 90.1 |
| COc1ccccc1-c1nccnc1NCc1cc(OC)c(OC)c(OC)c1 [CBK036642] | 90.6 |
| COc1ccc(NC(=O)c2cnc(-c3ccc(Cl)cc3)c(-c3ccc(C(C)=O)s3)c2)cn1 [CBK036643] | 92.2 |
| COc1ccc(-c2cc(C(=O)NCC(O)CO)cnc2-c2ccc(Cl)cc2)cn1 (stereo not shown) [CBK036645] | 94 |
| Cc1cc(-c2nccnc2NCc2cccc(Cl)c2)cc(C)c1O [CBK036646] | 87.4 |
| CC(C)[C@@H](CO)Nc1nccnc1-c1ccoc1 [CBK036648] | 86.6 |
| COc1ccc(C(C)C)cc1-c1nccnc1NCCc1c[nH]c2ccccc12 [CBK036650] | 109 |
| Cc1cccc(-c2ncc(NC(=O)CCOc3ccccc3)nc2-c2ccc(N)cc2)c1 [CBK036655] | 113 |
| O=C(NCC(O)c1ccc(O)cc1)c1cnc(-c2ccc(Cl)cc2)c(-c2cccnc2)c1 (stereo not shown) [CBK036656] | 92.5 |
| COC(=O)c1cscc1NC(=O)c1cnc(-c2ccc(Cl)cc2)c(-c2ccco2)c1 [CBK036657] | 104 |
| COc1ccc(-c2nc(NC(=O)c3ccncc3)cnc2-c2ccc(F)c(Cl)c2)cc1 [CBK036663] | 88.6 |
| O=C(NCCCN1CCOCC1)c1cnc(-c2ccccc2)c(-c2ccncc2)c1 [CBK036664] | 106 |
| O=C(NCc1cccc(C(F)(F)F)c1)c1cnc(-c2ccccc2)c(-c2ccco2)c1 [CBK036667] | 103 |
| CCc1cccc(NC(=O)c2cnc(-c3ccc(Cl)cc3)c(-c3ccc(OC)nc3)c2)n1 [CBK036671] | 93.7 |
| COc1ccc(C(C)C)cc1-c1nccnc1NCc1ccco1 [CBK036672] | 98 |
| COc1ccc(C(C)C)cc1-c1nccnc1N1CCCN(C)CC1 [CBK036677] | 110 |

| Structure (SMILES) | viability at 28.5 h, 10 µM [%] |
| --- | --- |
| Cc1cccc(-c2ncc(C(=O)NCCc3c[nH]cn3)cc2-c2ccncc2)c1 [CBK036678] | 86.9 |
| COc1ncc(-c2nccnc2NCc2cccc([N+](=O)[O-])c2)c(OC)n1 [CBK036680] | 97.7 |
| COc1ccc(-c2cc(C(=O)Nc3nc4c(OC)cccc4s3)cnc2-c2ccccc2)cn1 [CBK036681] | 105 |
| COc1ccc(C(C)C)cc1-c1nccnc1NCc1ccc2c(c1)OCO2 [CBK036683] | 81 |
| Cc1cccc(-c2ncc(NC(=O)CCc3cccnc3)nc2-c2ccc(N)cc2)c1 [CBK036684] | 86.9 |
| Nc1ccc(CCNC(=O)c2cnc(-c3ccc(Cl)cc3)c(-c3ccco3)c2)cc1 [CBK036686] | 99.7 |
| COc1ccc(-c2nc(NC(=O)C3CC(=O)N(C)C3c3cccnc3)cnc2-c2cccc(C)c2)cc1 (stereo not shown) [CBK036692] | 101 |
| Cc1cccc(-c2ncc(NC(=O)c3ccccn3)nc2-c2ccc(N)cc2)c1 [CBK036694] | 93.3 |
| NC(=O)c1ccc(-c2nccnc2NCc2ccc3c(c2)OCO3)cc1 [CBK036696] | 91.3 |
| COc1ccc(-c2cc(C(=O)NCC3CCNCC3)cnc2-c2ccc(Cl)cc2)cn1 [CBK036700] | 105 |
| COc1ncc(-c2nc(NC(=O)Cc3cc(F)c(F)c(F)c3)cnc2-c2cccc(C)c2)c(OC)n1 [CBK036717] | 96.4 |
| COC1CCC(C(=O)Nc2cnc(-c3ccc(F)c(Cl)c3)c(-c3ccc(C(C)=O)s3)n2)CC1 (stereo not shown) [CBK036718] | 99.3 |
| COC(=O)C(NC(=O)c1cnc(-c2ccc(Cl)cc2)c(-c2ccc(O)cc2)c1)c1ccccc1 (stereo not shown) [CBK036723] | 90.6 |
| NC(=O)c1cccc(-c2nccnc2N2CCN(CCO)CC2)c1 [CBK036726] | 96.9 |
| COc1ccccc1-c1nccnc1N1CCCC1CO (stereo not shown) [CBK036735] | 102 |
| C=CCNC(=O)c1cnc(-c2ccc(Cl)cc2)c(-c2ccco2)c1 [CBK036738] | 90.6 |
| COCCNc1nccnc1-c1cccs1 [CBK036739] | 100 |
| CN(C)c1cccc(C(=O)Nc2cnc(-c3cccc(C(F)(F)F)c3)c(-c3cccnc3)n2)c1 [CBK036752] | 90.4 |
| C[C@@H](Nc1nccnc1-c1cccnc1)c1ccccc1 [CBK036759] | 109 |
